We go through eleven compounds from publication PMC10420963, “Exploring Novel Drug Combinations: The Therapeutic Potential of Selanyl Derivatives for Leishmania Treatment” (Molecules, 2023).

The test system of series [1] is L. infantum promastigotes. The series is described as follows: Leishmanicidal activity against L. infantum promastigotes (MTT assay). The class given is cell-based, Leishmania infantum. The protocol: (§1) Promastigotes. L. major (clone VI, MHOM/IL/80) and L. infantum (clone, BCN-150) parasites were cultured at 26 °C under continuous shaking in M199 1× medium (Sigma, St. Louis, MO, USA) supplemented with heat-inactivated fetal bovine serum (FBS), 25 mM HEPES (pH 7), 0.1 mM adenine, 0.0005% (w/v) haemin, […], 0.0005% (w/v) biotin, 100 IU/mL penicillin and […]. For each experiment, the culture medium was changed everyday in order to achieve parasite in exponential growth phase.
(§2) In order to determine the leishmanicidal activity of the compounds obtained in this study, promastigotes of L. major and L. infantum strains were seeded in 96-well plates (3 ×·10^6 parasite/mL) in exponential growth phase at increasing concentrations (1–500 μM) of the compounds and maintained at 26 °C. After 48 h of incubation, the IC50 was determined by MTT assay. The absorbance was measured in a MultiskanEX photometric plate reader for microplates at 540 nm. Data were obtained from three independent experiments performed in triplicate.
(Tetrazolium dyes change colour on reduction, which living cells bring about.)

Series [2] can be described thus: Cytotoxicity in PMA-differentiated THP-1 macrophages (MTT assay). The following applies: human, pH 7.2, 48 h of treatment, read-out: THP-1 Cells CC50. It counts as cell-based. The method, then: Human monocytic leukemia cell line THP-1 cells were cultured in RMPI 1640 medium (Gibco, Leiden, The Netherlands) supplemented with 10% heat-inactivated FBS, 5% penicillin/streptomycin, 1 mM HEPES, 2 mM glutamine at pH 7.2 at 36 °C and 5% CO2.
THP-1 cells were seeded at a concentration of 8 × 10^5 cells/mL in 96-well plates and incubated for 24 h with phorbol 12-myristate 13-acetate (PMA) (10 ng/mL) supplemented RPMI 1640 (Gibco, Leiden, The Netherlands). After 24 h, the culture medium was removed, and the cells were treated with the synthesized compounds at different concentrations ranging from 1–500 μM at 37 °C and 5% CO2. After this time, the MTT assay was performed. The cytotoxic concentration values (CC50) were obtained by fitting the data to a sigmoid dose-inhibition curve using GraphPad Prism 7.0 software (GraphPad Software Inc., San Diego, CA, USA). MIL and PMN were used as reference drugs for comparison.

The test system of series [3] is L. infantum promastigotes. The series is described as follows: Drug combination (FICI) assay on L. infantum promastigotes. It counts as cell-based, Leishmania infantum. The following applies: for ƩFICI50: 48 h; for ƩFICI: combined with the reference drugs AMB, MIL, and PMN (bound for all three). The protocol:
To determine the nature of the interaction, it is crucial to choose the appropriate doses. Thus, the evaluation of the combination was carried out by a dose–response linear dilution experiment, for which the IC50 value of each substance alone was determined and multiplied by 0.2×, 0.4×, 0.6×, 0.8×, 1×, 1.2×, 1.4×, 1.6×, 1.8×, and 2× times, in order to obtain the different dilutions. […] Compound A6 stood out in this experiment, with synergistic interactions in combination with MIL (ƩFICI = 0.44), borderline synergistic interaction combined with PMN (ƩFICI = 0.54), but without interaction when combined with AMB (ƩFICI = 0.70).
The fractional inhibitory concentration index (FICI) was used to describe the interaction between the lead compounds A4–A6 and A8 with AmB, PMN and MIL. The compounds were studied in vitro against L. infantum promastigotes after 48 h of treatment. For this purpose, different increasing concentration ratios (0.2×, 0.4×, 0.6×, 0.8×, 1×, 1.2×, 1.4×, 1.6×, 1.8× and 2× times the IC50 of the compounds) were established. Finally, synergy was defined as FICI < 0.5, non-interaction as 0.5 < FICI < 4, and antagonism as FICI > 4. FICI values were obtained from four independent experiments.

The subject of another series is L. major promastigotes. Description: Leishmanicidal activity against L. major promastigotes (MTT assay). The class given is cell-based, Leishmania major. The following applies: for IC50: Leishmania major, L. major promastigotes, 48 h incubation, MTT. The method, then: as §1, §2
[4] abbreviates: Leishmania infantum, 48 h, L. infantum promastigotes, 48 h incubation, MTT, compound alone, read-out: IC50.

Read-outs that look alike come from different tables or passages of the source.

As a reminder, the IC50 is the concentration that inhibits the measured activity by half. A word on the CC50: it is the concentration that lowers cell viability or growth by half. In the case of `CCCCCCC(=O)[Se]CC(=O)O` [A4, 2-(heptanoylselanyl)acetic acid], the IC50 in series [1] (setting [4]) is less than 40 µM. Further, the CC50 at 48 h in series [2] turned out to be 173 ± 8.6 µM. For the same compound, the Effect entry in series [3] (combination with AmB), in series [3] (combination with MIL) and in series [3] (combination with PMN) was “Non interaction (non-interaction as 0.5 < FICI < 4)” each time. The ƩFICI50 in series [3] (combination with AmB) is listed as 0.71; in series [3] (combination with MIL), 0.68; in series [3] (combination with PMN), 0.68. In addition, the ƩFICI in series [3] was greater than 0.60.

With `CCCCCCCCCCCCCCCCOP(=O)([O-])OCC[N+](C)(C)C` [MIL, miltefosine, reference compound], the IC50 in series [1] (setting [4]) was 31.9 µM. The CC50 at 48 h in series [2] stood at 13.3 ± 2.8 µM.

The compound `CCCCCCC(=O)[Se]CC(=O)OC` [C4, Methyl 2-(heptanoylselanyl)acetate] registered an IC50 in series [1] (Leishmania infantum, 48 h) of 116 µM.

As for `O=C(O)CSC(=O)C1CC1` [B5, 2-((cyclopropanecarbonyl)thio)acetic acid], the half-maximal inhibitory concentration (IC50) in series [1] (setting [4]) turned out to be 87.6 µM.

Consider `COC(=O)CSC(=O)C1CCC1` [D6, Methyl 2-((cyclobutanecarbonyl)thio)acetate], for which the results for the 50% inhibitory concentration (IC50) (in the series on L. major promastigotes; in series [1] (setting [4])) were 83.4 µM and 95.3 µM, respectively.

For the compound `CCCCCCC(=O)SCC(=O)OC` [D4, Methyl 2-(heptanoylthio)acetate], the IC50 in the series with L. major promastigotes was 87.3 µM; in series [1] (setting [4]) it was 79.2 µM.

`NC[C@@H]1O[C@H](O[C@H]2[C@@H](O)[C@H](O[C@@H]3[C@@H](O)[C@H](N)C[C@H](N)[C@H]3O[C@H]3O[C@H](CO)[C@@H](O)[C@H](O)[C@H]3N)O[C@@H]2CO)[C@H](N)[C@@H](O)[C@@H]1O` [PMN, paromomycin, reference compound]: the CC50 at 48 h in series [2] was 39 ± 13.7 µM.

On to `O=C(O)C[Se]C(=O)C1CC1` [A5, 2-((cyclopropanecarbonyl)selanyl)acetic acid], for which the IC50 is 113 µM with L. major promastigotes and less than 40 µM in series [1] (setting [4]). The half-maximal cytotoxic concentration (CC50) at 48 h in series [2] was 211 ± 9.3 µM. Besides, the Effect entry in series [3] (combination with AmB), in series [3] (combination with MIL) and in series [3] (combination with PMN) was “Non interaction (non-interaction as 0.5 < FICI < 4)” throughout. Further, the ƩFICI50 turned out to be 0.70 in series [3] (combination with AmB), 0.98 in series [3] (combination with MIL) and 0.61 in series [3] (combination with PMN). The ƩFICI in series [3] is greater than 0.60.

Take `O=C(O)C[Se]C(=O)C1CCC1` [A6, 2-((cyclobutanecarbonyl)selanyl)acetic acid]: in the series on L. major promastigotes (L. major, from SI values), the “times more selective than MIL” value was determined as 15 and the “times more selective than PMN” value was 5. In addition, in series [1] (L. infantum, from SI values), the “fold more selective than MIL” value was found to be 28 fold and the “fold more selective than PMN” value is listed as 5 fold. The CC50 at 48 h in series [2] came out at 178 ± 10.2 µM. For the same compound, in series [3] (combination with AmB), the Effect result is listed as “Non interaction (non-interaction as 0.5 < FICI < 4)” and the ƩFICI50 stood at 0.70. In series [3] (combination with MIL), the Effect entry is “Synergy (synergy was defined as FICI < 0.5)” and the ƩFICI50 stood at 0.44. In addition, in series [3] (combination with PMN), the Effect entry is reported as “Non interaction (non-interaction as 0.5 < FICI < 4)” and the ƩFICI50 is listed as 0.54.

In the case of `COC(=O)CSC(=O)C1CC1` [D5, Methyl 2-((cyclopropanecarbonyl)thio)acetate], the IC50 in the series with L. major promastigotes was 81.8 µM; in series [1] (setting [4]), 68.7 µM.

For the compound `O=C(O)C[Se]C(=O)C1CCCCC1` [A8, 2-((cyclohexanecarbonyl)selanyl)acetic acid], the IC50 was 39.9 µM in series [1] (L. infantum promastigotes, 48 h incubation, MTT, compound alone, read-out: IC50) and less than 40 µM in series [1] (setting [4]). Besides, in series [2], the CC50 at 48 h was 147 ± 12.5 µM. Moreover, the Effect entry in series [3] (combination with AmB) is recorded as “Non interaction (non-interaction as 0.5 < FICI < 4)”; in series [3] (combination with MIL) it was “Synergy (synergy was defined as FICI < 0.5)”; in series [3] (combination with PMN) it was “Non interaction (non-interaction as 0.5 < FICI < 4)”. In addition, the ƩFICI50 in series [3] (combination with AmB) is on record as 0.52; in series [3] (combination with MIL), 0.40; in series [3] (combination with PMN), 0.52.
